The test system of assay [1] is intact human epidermis samples. Particulars: Histamine 100 μM; evaluated at 10, 20 and 30 minutes; epidermis isolated with dispase; FIG. 5.
Source text: The invention will allow measuring epidermal barrier integrity by evaluating transepithelial electric resistance (TEER), using a planar electrode (for example, Endohm-Snap; World Precision Instruments, Sarasota, Fla., USA), and a paracellular flux assay of for example, fluorescently labeled probes of different radii and sizes. Probes can be added to the upper well, and samples will be collected in the lower well over time to determine the paracellular flux. The amount of fluorescent probes that diffuse across the epidermis sample can be measured using an appropriate fluorometer or spectrophotometer.
The filter 206 of the original detachable ring 204 in the Snapwell™ (Corning, 3407) is replaced by a sandwich system 302 having two Plexiglas (or any other suitable material) inserts 304, with the epidermis/skin sample 306 lying in between them on a filter paper 308 (Nucleopore Track-etched, #110407; 13 mm diameter & pore: 0.4 μm) so that it covers the opening. The skin sample 306 is inserted with epidermis side up. Each of the inserts 304 has a hole 310 formed therein with a diameter of 0.3 cm and an area of 0.0707 cm^2. As in the conventional Snapwell™ system, the sandwich system is 302 is placed between an upper well 312 having a medium 314 and a lower well 316 having a medium 318. A volt-ohm meter 320 is connected between the two media. […]
Assay [2] concerns barrier-disrupted human epidermis. The assay can be described thus: TEER of tape stripped (barrier-disrupted) human epidermis in the system. The format is cell-based. The note with it: compared with media alone. How it is done: (§1) The Weck blade is held at a 30-45° angle from the donor skin (e.g. living subject or discarded skins from plastic surgery procedures) surface, while a gentle traction behind the blade is provided by the other hand. Using different depths (e.g. […]), based on the skin sample source (e.g. based on differences in epidermal depth in different anatomical areas as well as species-specific differences), we can effectively isolate intact, full thickness epidermal samples with minimal to no dermis (e.g. subepithelial tissue). The epidermis is removed using that Weck surgical blade, cut into smaller samples to fit the apparatus and placed in a calcium-containing buffer until it is mounted in the device.
(§2) We have also used the invention to test the effect of cytokines relevant to human disease on epidermal barrier function recovery. Human discarded skin was tape stripped to induce a barrier impairment, this barrier-disrupted epidermis was isolated using the Weck blade and placed into the system. Samples were than treated for 24 h with human recombinant IL17A, a prototypic cytokine commonly found within the skin lesions of psoriasis (FIG. 6) or the Th2 cytokines, IL4 and IL13, commonly found in atopic dermatitis (FIG. 7). After 24 h treatment with human recombinant IL17A (50 and 100 ng/ml), TEER was increased, and paracellular flux was reduced as compared with a sample treated with media alone. Those data indicated IL17A enhanced epidermal barrier recovery.

For assay [3] the test system is unchanged. The assay can be described thus: Paracellular flux across tape stripped (barrier-disrupted) human epidermis in the system. The assay is classed as cell-based. The note with it: compared with media alone. How it is done:
as §1, §2

Assay [4] has as its system murine skin samples (wild type and STAT6 mice). The assay can be described thus: Skin barrier recovery after in vivo tape stripping, murine skin samples mounted in the system. The assay is classed as cell-based. The note with it: Pam3CSK4 10 μM; wild type versus STAT6 mice, n=3 each; normalized to WT vehicle control; FIG. 8. As to the method:
For very thin skin samples isolated from rodents or other small mammalians, curettage along the dermal surface of the biopsy can be performed with a blade to minimize the amount of dermis taken. Alternatively, skin can be incubated in ammonium thiocyanate and epidermis removed from dermis. Murine skin can be isolated from any anatomical area, defatted using a surgical blade, cut into smaller samples to mount in the apparatus.
We have also used the present invention in a murine model. Skin barrier recovery after in vivo tape stripping was evaluated in wild type mice as compared to genetically modified mice that expressed a constitutively activated form of STAT6 under the CD2 locus, that results in the enhanced expression of Th2 cytokines (IL-4 and IL-13). Skin samples were collected from the healthy, nonperturbed skin of the back or from an area of the back that underwent tape stripping. The dermis was removed by scraping with a surgical blade and skin samples were mounted in the system. We observed no differences in recovery between the two mice strains. […] All data are normalized to WT vehicle control group. In FIG. 8, ns: not significant; *P<0.05, **P<0.01, ***P<0.001. (WT, n=3; STAT6VT, n=3).

Setting [5] is: IL4 (50 ng/ml) and IL13 (50 ng/ml) given together, FIG. 7.
Setting [6] is: IL17A 50 and 100 ng/ml, 24 h treatment, FIG. 6.

As for `NCCc1c[nH]cn1` [Histamine], the “paracellular flux of fluorescein” value in assay [1] was “enhanced”.

With “IL13: human recombinant IL13, Th2 cytokine commonly found in atopic dermatitis”, the TEER entry in assay [2] (setting [5]) is recorded as “reduced”. Also, in assay [3] (setting [5]), the paracellular flux result is “increased”.

On to “IL17A: human recombinant IL17A, a prototypic cytokine commonly found within the skin lesions of psoriasis”, for which the TEER result in assay [2] (setting [6]) is given as “increased”. In addition, the paracellular flux entry in assay [3] (setting [6]) is given as “reduced”.

Regarding Pam3CSK4, the skin barrier recovery result in assay [4] was “greater recovery in wild type mice”.

B1: IL4: human recombinant IL4, Th2 cytokine commonly found in atopic dermatitis (protein, UniProt P05112 25-153, looked up)
Interleukin-4: HKCDITLQEIIKTLNSLTEQKTLCTELTVTDIFAASKNTTEKETFCRAATVLRQFYSHHEKDTRCLGATAQQFHRHKQLIRFLKRLDRNLWGLAGLNSCPVKEANQSTLENFLERLKTIMREKYSKCSS
Consider B1, for which, in assay [2] (setting [5]), the TEER entry is recorded as “reduced”. Further, in assay [3] (setting [5]), the paracellular flux result is recorded as “increased”.
